In ChEMBL document CHEMBL1126629 (J Med Chem, 1993):

test system: not listed separately; experiment: Selectivity ratio is IC 50 value of dopamine receptor to that of serotonin 5-HT; conditions: not given

Structure (SMILES)	Selectivity ratio
COC(=O)C1C(c2ccc(I)cc2)CC2CCC1N2C (configuration not stated)	2
COC(=O)C1C(c2cccc(I)c2)CC2CCC1N2C (configuration not stated)	0.4
COC(=O)C1C2CCC(CC1c1ccc(Cl)cc1)N2 (configuration not stated)	1
COC(=O)C1C(c2cccc(Br)c2)CC2CCC1N2C (configuration not stated)	3
COC(=O)C1C(c2ccc(Cl)c(Cl)c2)CC2CCC1N2C (configuration not stated)	2

biological target: Sodium-dependent serotonin transporter (Homo sapiens, UniProt P31645); experiment: Ability to inhibit [3H]citalopram binding to serotonin transporter in cynomolgus monkey striatum; type: tissue-based, Cercopithecidae; conditions: target entry is the homologue from another species
Sequence (P31645 whole entry): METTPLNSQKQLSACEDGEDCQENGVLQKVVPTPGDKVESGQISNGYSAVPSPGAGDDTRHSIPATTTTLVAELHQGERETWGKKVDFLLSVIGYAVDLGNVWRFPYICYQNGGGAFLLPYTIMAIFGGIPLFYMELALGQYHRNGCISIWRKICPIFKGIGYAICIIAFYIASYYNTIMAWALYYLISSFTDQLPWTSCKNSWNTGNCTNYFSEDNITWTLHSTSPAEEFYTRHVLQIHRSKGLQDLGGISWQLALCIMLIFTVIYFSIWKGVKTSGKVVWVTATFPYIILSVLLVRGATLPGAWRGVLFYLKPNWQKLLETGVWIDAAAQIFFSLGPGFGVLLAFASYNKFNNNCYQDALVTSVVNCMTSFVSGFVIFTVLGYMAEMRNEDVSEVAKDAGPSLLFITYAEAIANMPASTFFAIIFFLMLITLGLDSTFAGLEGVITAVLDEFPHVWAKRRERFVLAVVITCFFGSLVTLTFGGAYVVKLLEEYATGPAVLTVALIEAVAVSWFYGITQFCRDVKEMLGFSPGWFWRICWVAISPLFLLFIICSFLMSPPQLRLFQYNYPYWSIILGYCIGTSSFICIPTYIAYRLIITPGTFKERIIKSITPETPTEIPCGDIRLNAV

Structure (SMILES)	IC50 [nM]
COC(=O)C1C(c2ccc(I)cc2)CC2CCC1N2C (configuration not stated)	2.53
COC(=O)C1C2CCC(CC1c1ccc(Cl)c(Cl)c1)N2 (configuration not stated)	1.4
COC(=O)[C@H]1[C@@H](c2ccc(F)cc2)C[C@H]2CC[C@H]1N2C	160
COC(=O)C1C(c2cccc(I)c2)CC2CCC1N2C (configuration not stated)	9.88
COC(=O)C1C2CCC(CC1c1ccc(Cl)cc1)N2 (configuration not stated)	1.63
COC(=O)C1C(c2cccc(Br)c2)CC2CCC1N2C (configuration not stated)	20.4
COC(=O)C1C(c2ccc(Cl)c(Cl)c2)CC2CCC1N2C (configuration not stated)	2.47
